The record followed here is ChEMBL document CHEMBL5120923, “Tamarixetin Attenuated the Virulence of Staphylococcus aureus by Directly Targeting Caseinolytic Protease P” (J Nat Prod, 2022).

For experiment [1], the system named is Staphylococcus aureus. Put plainly: Inhibition of Hla protein expression in methicillin-resistant Staphylococcus aureus USA300 at 4 to 64 ug/ml incubated for overnight by western blot analysis. The experiment is classed as functional. The following applies: dose 4-64 µg/ml, DDE = dose-dependent effect. On the technique in general: Immunoblotting shows a protein as a band on a membrane.

Experiment [2] has as its system Staphylococcus aureus. Put plainly: Inhibition of Hla protein expression in methicillin-resistant Staphylococcus aureus Newman at 4 to 64 ug/ml incubated for overnight by western blot analysis. The experiment is classed as functional. To be noted: dose 4-64 µg/ml, DDE = dose-dependent effect.

The structures appear in SMILES notation.

`COc1ccc(-c2oc3cc(O)cc(O)c3c(=O)c2O)cc1O` [TAMARIXETIN]: the inhibition entry in the experiment with Staphylococcus aureus [1] and with Staphylococcus aureus [2] was “Dde” throughout.
